Reference: patent US20220241247A1, “PHARMACOLOGICAL AGENTS FOR TREATING PROTEIN AGGREGATION DISEASES OF THE EYE” (PLEX PHARMACEUTICALS, INC., priority 2019, published 2022)
Like-named read-outs stand apart in the source and are kept apart here.

Assays:
[1] = system: bovine lens soluble extracts; assay: UV-induced opacification of bovine lens lysate; type: biochemical; details: UV radiation
Excerpt: (§1) Both bovine and human lens lysates contain AAC as well as multiple endogenous client proteins, all of which are present at physiological ratios in a physiologically-relevant milieu of ions, redox pairs and antioxidants.

[2] = system: HLE cell line SRA 01/04 cells; assay: UV-induced cell death of human lens epithelial cells; type: cell-based; details: pre-incubated 2 hours; UV light 48 seconds
Excerpt: (§2) Efficacy of CAP4349 in protection of human lens epithelial cells from stress, as a measure of cellular AC function: Heating of intact human lenses dramatically promotes conversion of soluble AC into HMW aggregates and AC is responsible for protecting human lens epithelial (HLE) cells from thermal stress induced cell death (Peschek J et al. (2009), Proc. Natl. Acad. Sci. USA. 106(32):13272-13277). Survival of HLE cells following UV stress also depends on AC activity (Kumar P. et al., (2007) Biochem. J., 408:251-258). Assays for measuring cell-survival assays following heat or UV exposure were developed as a potential surrogate for AC chaperone activity. HLE cell line SRA 01/04 cells were pre-incubated for 2 hours with CAP4349 and then exposed to heat (50° C. for 40 m) or UV light (48 seconds).

[3] = system: AAC(R116C)-GFP in HeLa cells; assay: High-content assay for AAC aggregation (p62-positive inclusions); type: cell-based, human; details: GFP fluorescence
Experimental: Cellular effects of CAP4349 were evaluated using an automated high-content assay for AAC aggregation. AAC(R116C)-GFP has been reported to form p62 positive inclusions (p62 is known to co-localize with ubiquitinated aggregates in several protein aggregation diseases) (Neal R, et al. (2010) Mol. Vis. 16:2137-2145.). Experiments were carried out to determine whether CAP4349 had any effect on co-localization of AAC and p62 in HeLa cells.

[4] = Estimated maximum concentration in the lens after topical ophthalmic dosing; details: meglumine formulated; topical ophthalmic bioavailability 2-5%
Excerpt: (§3) Therefore, in order to improve the aqueous solubility and bioavailability, the present disclosure provides prodrugs of CAP4349.

AAC [5] = target: T1, AAC (Homo sapiens, UniProt P02489); assay: Chaperone assay: UV-induced aggregation of BGC in presence of AAC; type: biochemical; details: UV radiation
T1 sequence (P02489 1-173): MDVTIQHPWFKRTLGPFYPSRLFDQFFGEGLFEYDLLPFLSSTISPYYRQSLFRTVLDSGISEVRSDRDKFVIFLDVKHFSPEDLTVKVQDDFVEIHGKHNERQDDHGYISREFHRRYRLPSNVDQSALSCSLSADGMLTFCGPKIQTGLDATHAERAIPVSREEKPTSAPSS
Experimental: (§4) Post translational modification, due to UV light, oxidation, glycation, crosslinking, and proteolysis can affect the CLA of AAC and its ability to prevent the aggregation of target proteins. These modifications lead to aggregation of other lens crystallins, which culminate in the development of lens opacity and cataract development. Since CAP4349 prevents aggregation of hACC, the effect of CAP4349 on the CLA activity of AAC was evaluated using in vitro chaperone assays with (i) lysozyme as a model client protein, and (ii) bovine γ-crystallin (BGC), as a physiologically relevant lenticular protein.
UV-Induced Aggregation of BGC: Exposure to UV radiation is a contributing factor to cataract formation. […]
The aggregation reaction was initiated by exposing the reaction mixture to UVB radiation. Aggregation was monitored for changes in light scattering by measuring absorbance at 600 nm at t=0, 15, 30 and 45 minutes. Mean percentage absorbance±SD from triplicate or quadruplicate wells plotted on a graph (FIG. 2C). EC50 value was calculated as 64.8 (±1.3) […], which is the concentration of CAP4349-M concentration producing half-maximal response of BGC aggregation in presence of AAC.

[6] = system: human lens soluble extracts; assay: UV-induced opacification of human lens lysate; type: biochemical; details: UV radiation
Excerpt: as §1

AAC [7] = target: T1, AAC; assay: UV-induced aggregation of hAAC, measured by absorbance; type: biochemical
Experimental: (§5) It was determined that CAP4349 protects hAAC from UV-induced aggregation in a concentration-dependent manner. The meglumine salt of Tafamidis (CAP4349-M) was tested for its ability to prevent hAAC aggregation using SDS/PAGE and absorbance.
In another study, hAAC, with or without CAP4349-M, was exposed to UV light for 60 minutes and the resulting aggregation was measured by absorbance. The results are shown in FIG. 1B in terms of mean percentage absorbance change±SD (n=3 or 4). The EC50 value, which is the half-maximal response of hAAC aggregation, was determined to be19.7(±1.4) μM.

[8] = system: HLE cell line SRA 01/04 cells; assay: Viability of human lens epithelial cells under normal conditions; type: cell-based; details: no stress
Excerpt: as §2, with “HLE cell line SRA 01/04 cells were pre-incubated for 2 hours with CAP4349 and then exposed to heat (50° C. for 40 m) or UV light (48 seconds).” left out

porcine lenses = assay: UV-induced opacification of porcine lenses ex vivo; details: pretreated with 125 μM
Experimental: Porcine lenses were pretreated with 125 μM CAP4349 (or vehicle) and UV irradiated (or not). Porcine lenses (Sierra for Medical Science, Inc., Whittier, CA) have been used previously in ex vivo models of cataracts (Raju, M. (2014) Biochemistry, 53(16):2615-2623.).

[9] = system: HLE cell line SRA 01/04 cells; assay: Heat-induced cell death of human lens epithelial cells; type: cell-based; details: pre-incubated 2 hours; 50° C. for 40 m
Excerpt: as §2

AAC [10] = target: T1, AAC; assay: Chaperone assay: heat and DTT-induced aggregation of lysozyme in presence of AAC; type: biochemical; details: AAC 250, lysozyme 500 μg/ml; 10 mM DTT, 37° C.; absorbance at 400 nm
Experimental: as §4
Heat-induced aggregation of lysozyme: In the presence of a reducing agent (DTT) and heat (37° C.), lysozyme undergoes denaturation and aggregation. The CLA activity of AAC can protect lysozyme against heat and DTT-induced aggregation (Robey, R. L. et al. (1997), Journal of Heterocyclic Chemistry, 34: (2)413-428).

AAC [11] = target: T1, AAC; assay: UV-induced aggregation of hAAC, SDS-PAGE; type: biochemical; details: UV light 15 minutes; 0-1000 μM; 4-20% SDS-PAGE
Experimental: as §5
hAAC, with or without CAP4349-M (meglumine salt, 0-1000 μM), was exposed to UV light for 15 minutes and analyzed on a 4-20% gradient SDS-PAGE gel.

[12] = Drug bank value; cited from earlier work
Solubility = type: physicochemical; details: for solubility: disodium salt
Experimental: as §3
To a solution of Tafamidis, CAP4349 (308 mg) in DMF (10 mL) was added K2CO3 (220 mg) and KI (132 mg) followed by di-tert-butyl chloromethyl phosphate at room temperature while stirring. The reaction mixture was stirred at 70° C. for two hours. The reaction was quenched with ice and extracted three times in Ethyl Acetate. The combined organic layer was washed with water followed by 1% aqueous solution of sodium thiosulfate, and lastly with Brine, yielding the intermediate t-butyl protected phosphate. The t-butyl protected phosphate intermediate was converted to disodium salt in two steps by cleaving the protecting group with TFA followed by NaHCO3 treatment in the presence of water and THF resulting in disodium salt of CAP4357, as a white solid.

[13] = versus meglumine salt of CAP4349

O=C(O)c1ccc2nc(-c3cc(Cl)cc(Cl)c3)oc2c1 [CAP4349, 2-(3,5-dichlorophenyl) benzo[d]oxazole-6-carboxylic acid]
protection of bovine lysate from UV-induced opacification [1]: protected both bovine (FIG. 5A) and human (FIG. 5B) lysates from UV-induced opacification in a dose-dependent manner | protection from UV-induced cell death [2]: protects the cells from heat-induced and UV-induced cell death in a dose-dependent manner | aggregates of AAC(R116C)-GFP co-localized with p62 [3]: decreased | maximum concentration in the lens [4]: about 5 μM | protection provided by AAC against UV-induced BGC aggregation (AAC [5]): increased the protection provided by AAC against UV-induced BGC aggregation in a dose-dependent manner | protection of human lysate from UV-induced opacification [6]: protected both bovine (FIG. 5A) and human (FIG. 5B) lysates from UV-induced opacification in a dose-dependent manner | EC50 (AAC [7]; read-out: EC50 for the prevention of hACC aggregation (as restated in Example 7)): 19.5 µM | viability under normal conditions [8]: does not alter the viability | UV-induced opacification of porcine lenses (porcine lenses): prevent UV-induced opacification | protection from heat-induced cell death [9]: protects the cells from heat-induced and UV-induced cell death in a dose-dependent manner | protection of lysozyme from aggregation by AAC (AAC [10]): increased protection of lysozyme from aggregation

CNC[C@H](O)[C@@H](O)[C@H](O)[C@H](O)CO.O=C(O)c1ccc2nc(-c3cc(Cl)cc(Cl)c3)oc2c1 [CAP4349-M]
prevention of hAAC aggregation (band intensities of aggregated and non-aggregated form) (AAC [11]): dose-dependent prevention of hAAC aggregation | maximum solubility [12]: 0.0323 mg/mL

O=C(O)c1ccc2nc(-c3cc(Cl)cc(Cl)c3)oc2c1 [CAP4349-M]
EC50 (AAC [7]; UV light 60 minutes, absorbance, n=3 or 4, read-out: EC50, half-maximal response of hAAC aggregation): 19.7 µM

O=C(OCOP(=O)(O)O)c1ccc2nc(-c3cc(Cl)cc(Cl)c3)oc2c1.[Na+].[Na+] [CAP4357]
solubility (Solubility; aqueous with cosolvent or surfactant or cyclodextrin, 5% aqueous (2-Hydroxypropyl)-β-cyclodextrin, read-out: solubility in 5% aqueous HPBCD): 40 mg/mL | solubility (Solubility; water, read-out: aqueous solubility): 25 mg/mL | fold increase in HPBCD solubility (Solubility; [13]): 1,238 fold | fold increase in aqueous solubility (Solubility; [13]): 774 fold
